From patent publication US20260062420A1, “NOVEL DPP1 INHIBITORS AND USES THEREOF” (Insmed Incorporated, priority 2022, published 2026)
Read-outs that look alike come from different tables or passages of the source.

What was measured:
[1] = molecular target: active mouse DPP1 enzyme (Mus musculus (Mouse), UniProt P97821); test: Mouse DPP1 Enzyme IC50 Assay; type: biochemical; conditions: mouse DPP1 enzyme; Table 16; read-out: IC50, nM; Mouse
Description: Test articles were applied to active mouse DPP1 enzyme (R&D Systems; Minneapolis, MN) in Assay Buffer (50 mM MES pH 5.5, 50 mM NaCl, 5 mM DTT) in a total reaction volume of 125 μL. 25 μL of compound in Assay Buffer plus 5% DMSO was first added to 50 μL of active mouse DPP1 enzyme at a concentration of 62.5 pg/μL and allowed to pre-incubate for 10 minutes at 37° C. after which 50 μL of 1000 μM H-Gly-Arg-AMC substrate (Bachem; St. Torrance, CA) was added, giving final substrate concentration of 400 μM and a final DMSO concentration of 1%. Substrate cleavage was measured for 90 minutes at 37° C., with fluorescence at Excitation/Emission 350/450 nm measured every 5 minutes. DPP1 concentration was interpolated based on its activity relative to a standard curve of recombinant active mouse DPP1 enzyme. IC50 values for each compound were calculated via the XLFit (IDBS Version 5.3.1.3) Add-On to Microsoft Excel using the four parameter fit equation y=(A+((B−A)/(1+((C/x)^D)))), which appears as equation number 205 (4 Parameter Logistic Model or Sigmoidal Dose-Response Model) in XLFit. Default constraints were used for each Parameter. IC50 was defined as the compound concentration at which 50% of enzyme activity was inhibited when compared to the no-compound control.

[2] = molecular target: Recombinant human DPP1 enzyme (Homo sapiens (Human), UniProt P53634); test: Human DPP1 Enzyme IC50 Assay; type: biochemical; conditions: human DPP1 enzyme; Table 16; read-out: IC50, nM; Human
Description: Recombinant human DPP1 enzyme (R&D Systems; Minneapolis, MN) was first proteolytically processed into its mature form using recombinant human cathepsin L (R&D Systems) in a buffer consisting of 20 mM citric acid pH 4.5, 150 mM NaCl, 1 mM EDTA and 10 mM DTT. Test articles were applied to activated human DPP1 enzyme in Assay Buffer (25 mM MES pH 6.0, 50 mM NaCl, 5 mM DTT) in a total reaction volume of 125 μL. 25 μL of compound in Assay Buffer plus 5% DMSO was first added to 50 μL of activated human DPP1 enzyme at a concentration of 1 ng/μL and allowed to pre-incubate for 10 minutes at 37° C. after which 50 μL of 1000 μM H-Gly-Arg-AMC substrate (Bachem; St. Torrance, CA) was added, giving final substrate concentration of 400 μM and a final DMSO concentration of 1%. Substrate cleavage was measured for 90 minutes at 37° C., with fluorescence at Excitation/Emission 350/450 nm measured every 5 minutes. DPP1 concentration was interpolated based on its activity relative to a standard curve of activated human recombinant DPP1 enzyme. IC50 values for each compound were calculated via the XLFit (IDBS Version 5.3.1.3) Add-On to Microsoft Excel using the four parameter fit equation y={A+[(B−A)]/[1+((C/x)^D)]}, which appears as equation number 205 (4 Parameter Logistic Model or Sigmoidal Dose-Response Model) in XLFit. Default constraints were used for each Parameter.

[3] = molecular target: DPP1 in HL-60 cells (Homo sapiens (Human), UniProt P53634); test: DPP1 Cell IC50 Assay (HL-60 cells, H-Gly-Phe-AFC substrate); type: cell-based
Description: HL-60 cells (ATCC; Manassas, VA) were maintained in RPMI-1640 supplemented with 20% heat-inactivated FBS and 1× Antibiotic Antimycotic (Cytiva; Marlborough, MA). Media was changed every three to four days and cells were not allowed to exceed 1×10^6 cells per mL. Prior to assay, cells were collected by centrifugation at 500 rcf for 3 minutes, resuspended in PBS and counted. Cells were diluted in PBS to a concentration of 5×10^5 live cells per mL and transferred to black 96-well plates for assay, 60 μL per well. Test articles were diluted in PBS plus 0.5% DMSO, and 20 μL was added to each assay well. Compound was allowed to pre-incubate with cells with gentle shaking at 100 rpm for 60 minutes at 37° C. in a cell culture incubator maintained at 5% CO2, after which 20 μL of 500 μM H-Gly-Phe-AFC substrate (MP Biomedicals; Solon, OH) was added to each well. Plates were returned to the incubator with shaking at 100 rpm for 30 minutes, after which fluorescence was measured at Excitation/Emission 400/505 nm. % Inhibition was calculated from RFU values compared to control cell wells that received only PBS plus 0.5% DMSO. IC50 values for each compound were calculated via the XLFit (IDBS Version 5.3.1.3) Add-On to Microsoft Excel using the four parameter fit equation y=(A+((B−A)/(1+((C/x)^D)))), which appears as equation number 205 (4 Parameter Logistic Model or Sigmoidal Dose-Response Model) in XLFit.

[4] = H-Gly-Phe-AFC substrate, Table 15, read-out: Cell IC50

Chain of Recombinant human DPP1 enzyme (P53634 25-134): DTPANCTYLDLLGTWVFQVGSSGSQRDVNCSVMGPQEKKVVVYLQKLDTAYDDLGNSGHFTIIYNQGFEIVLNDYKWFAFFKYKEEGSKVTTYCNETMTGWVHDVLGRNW
Chain of Recombinant human DPP1 enzyme (P53634 231-394): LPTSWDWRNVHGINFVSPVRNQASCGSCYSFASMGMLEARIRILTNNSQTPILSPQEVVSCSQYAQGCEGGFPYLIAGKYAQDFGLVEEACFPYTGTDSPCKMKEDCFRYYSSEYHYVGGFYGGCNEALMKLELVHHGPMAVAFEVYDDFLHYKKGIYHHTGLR
Chain of Recombinant human DPP1 enzyme (P53634 395-463): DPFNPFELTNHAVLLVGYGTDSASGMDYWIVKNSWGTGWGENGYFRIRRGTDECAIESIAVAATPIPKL
Chain of DPP1 in HL-60 cells (P53634 25-134): as the sequence (P53634 25-134) above
Chain of DPP1 in HL-60 cells (P53634 231-394): as the sequence (P53634 231-394) above
Chain of DPP1 in HL-60 cells (P53634 395-463): as the sequence (P53634 395-463) above
Chain of active mouse DPP1 enzyme (P97821 25-134): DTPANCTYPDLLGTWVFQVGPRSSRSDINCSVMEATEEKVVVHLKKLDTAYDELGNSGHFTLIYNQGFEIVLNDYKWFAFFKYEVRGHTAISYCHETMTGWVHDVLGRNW
Chain of active mouse DPP1 enzyme (P97821 231-393): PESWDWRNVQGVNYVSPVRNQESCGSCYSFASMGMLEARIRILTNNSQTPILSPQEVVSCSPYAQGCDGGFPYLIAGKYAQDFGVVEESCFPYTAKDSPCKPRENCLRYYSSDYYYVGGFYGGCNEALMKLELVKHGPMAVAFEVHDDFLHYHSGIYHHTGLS
Chain of active mouse DPP1 enzyme (P97821 394-462): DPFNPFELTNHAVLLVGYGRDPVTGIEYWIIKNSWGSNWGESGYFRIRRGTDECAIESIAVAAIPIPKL

Row | SMILES | IC50 [1] [nM] | IC50 [2] [nM] | IC50 ([3]; Table 16, read-out: Cell Assay) [nM] | IC50 [3, 4] [nM]
1 | Cn1c(=O)oc2ccc(-c3ccc(C[C@@H](C#N)NC(=O)CC4(N)CCCCC4)cc3)cc21 | 815 | 1100 | 40.1 | 
2 | [2H]C([2H])([2H])n1c(=O)oc2ccc(-c3ccc(C[C@@H](C#N)NC(=O)[C@@H]4C[C@@H]5COC[C@@H]5N4)cc3)cc21 |  | 426 | 500 | 
3 | Cn1c(=O)oc2ccc(-c3ccc(C[C@@H](C#N)NC(=O)[C@H]4C[C@H]5OCC[C@H]5N4)cc3)cc21 | 226 | 497 | > 1000 | 
4 | Cn1c(=O)oc2ccc(-c3ccc(C[C@@H](C#N)NC(=O)C4CC5OCCC5N4)cc3)cc21 (stereo partly shown) | 438 | 784 | 878 | 
5 | Cn1c(=O)oc2ccc(-c3ccc(C[C@@H](C#N)NC(=O)[C@@H]4C[C@H]5C[C@H]5N4)cc3)cc21 [IWD-002, (1R,3S,5R)—N—((S)-1-cyano-2-(4-(3-methyl-2-oxo-2,3-dihydrobenzo[d]oxazol-5-yl)phenyl)ethyl)-2-azabicyclo[3.1.0]hexane-3-carboxamide] |  |  |  | 3.7
6 | [2H]C([2H])([2H])n1c(=O)oc2ccc(-c3ccc(C[C@@H](C#N)NC(=O)[C@@H]4C[C@@H]5COC[C@@H]5N4)c(F)c3)cc21 |  | 102 | 146 | 
7 | Cn1c(=O)oc2ccc(-c3ccc(C[C@@H](C#N)NC(=O)[C@@H]4C[C@H]5C[C@H]5N4)cc3)cc21 [drawing 1151] | 24 | 41.1 | 3.7 | 
8 | Cn1c(=O)oc2ccc(-c3ccc(C[C@@H](C#N)NC(=O)[C@@H]4C[C@@H]5COC[C@@H]5N4)cc3)cc21 [drawing 1208] | 136 | 311 | 462 | 
9 | Cn1c(=O)oc2ccc(-c3ccc(C[C@@H](C#N)NC(=O)[C@@H]4C[C@@H]5CCC[C@@H]5N4)cc3)cc21 | 8.2 | 17.3 | 3.1 | 
10 | CN1COc2ccc(-c3ccc(C[C@@H](C#N)NS(=O)(=O)CCNC4CCCC4)cc3)cc21 | > 5000 | > 5000 |  | 
11 | Cn1c(=O)oc2ccc(-c3ccc(C[C@@H](C#N)NC(=O)[C@@H]4C[C@@H]5C[C@@H]5N4)cc3)cc21 | 131 | 189 | 26 | 
12 | CC[C@@H](/C=C/C(=O)N1CCc2ccccc21)NC(=O)C1(N)CCOCC1 [GSK-2793660, reference compound] |  |  |  | 0.34
13 | Cn1c(=O)oc2ccc(-c3ccc(C[C@@H](C#N)NS(N)(=O)=O)cc3)cc21 | > 5000 | > 5000 |  | 
14 | Cn1c(=O)oc2ccc(-c3ccc(C[C@@H](C#N)NS(=O)(=O)CCN)cc3)cc21 | > 5000 | > 5000 |  | 
15 | Cn1c(=O)oc2ccc(-c3ccc(C[C@@H](C#N)NC(=O)[C@@H]4C[C@H]5C[C@H]5N4)cc3)cc21 [drawing 1152] | 19.6 | 30.4 |  | 

Now from value to molecule:

Row | IC50 [1] [nM] | IC50 [2] [nM] | IC50 ([3]; Table 16, read-out: Cell Assay) [nM] | IC50 [3, 4] [nM] | SMILES
16 | 218 | 186 | 10.1 |  | Cn1c(=O)oc2ccc(-c3ccc(C[C@@H](C#N)NC(=O)[C@@H]4CNCCCO4)cc3F)cc21
17 | 31 | 31.4 | 3.6 |  | N#Cc1ccc(-c2ccc(C[C@@H](C#N)NC(=O)[C@@H]3CNCCCO3)c(F)c2)cc1 [drawing 1196]
18 | 647 | 432 | 508 |  | Cn1c(=O)oc2ccc(-c3ccc(CC(C#N)NC(=O)C4CNC4)c(F)c3)cc21 (stereo not shown)
19 | 36.7 | 49.5 | 4.2 |  | N#Cc1ccc(-c2ccc(C[C@@H](C#N)NC(=O)[C@@H]3CNCCCO3)c(F)c2)cc1 [drawing 1197]
20 | 306 | 537 | 330 |  | Cn1c(=O)oc2ccc(-c3ccc(C[C@@H](C#N)NC(=O)[C@@H]4COCCN4)cc3)cc21
21 | 246 | 480 | 875 |  | N#Cc1ccc(-c2ccc(C[C@@H](C#N)NC(=O)[C@@H]3C[C@@H]4COC[C@@H]4N3)cc2)cc1
22 | 41.2 | 179 | 150 |  | Cn1c(=O)oc2ccc(-c3ccc(C[C@@H](C#N)NC(=O)[C@@H]4C[C@@H]5COC[C@@H]5N4)c(F)c3)cc21
23 |  | 42.2 | 4.9 |  | Cn1c(=O)oc2ccc(-c3cc(F)c(C[C@@H](C#N)NC(=O)[C@@H]4CNCCCO4)c(F)c3)cc21
24 | 6.5 | 10.1 | 3 ± 0.4 |  | N#Cc1ccc(-c2ccc(C[C@@H](C#N)NC(=O)[C@@H]3C[C@@H]4CCC[C@@H]4N3)c(F)c2)cc1
25 |  | 428 | 59.9 |  | N#C[C@H](Cc1ccc(-c2ccc3c(c2)C(=O)NC3)cc1)NC(=O)[C@@H]1CNCCCO1
26 |  | 7.6 | 1.9 |  | Cn1c(=O)oc2ccc(-c3ccc(C[C@@H](C#N)NC(=O)[C@@H]4C[C@@H]5CCC[C@@H]5N4)c(F)c3)cc21 [drawing 1227]
27 |  | 416 | 418 |  | [2H]C([2H])([2H])n1c(=O)oc2ccc(-c3ccc(C[C@@H](C#N)NC(=O)C4CNC4)c(F)c3)cc21
28 | 3.4 | 5.9 | 1.7 |  | Cn1c(=O)oc2ccc(-c3ccc(C[C@@H](C#N)NC(=O)[C@@H]4C[C@@H]5CCC[C@@H]5N4)c(F)c3)cc21 [drawing 1220]
29 |  | 29.6 | 3.8 |  | Cn1c(=O)oc2ccc(-c3cc(F)c(C[C@@H](C#N)NC(=O)[C@@H]4CNCCCO4)cc3F)cc21
30 | 2080 | 828 | 60.4 |  | Cn1c(=O)oc2ccc(-c3ccc(C[C@@H](C#N)NC(=O)C4CNCC45CCC5)cc3)cc21 (stereo partly shown) [drawing 1188]
31 | 785 | 360 | 54.7 |  | Cn1c(=O)oc2ccc(-c3ccc(C[C@@H](C#N)NC(=O)C4CNC(C)(C)CO4)cc3)cc21 (stereo partly shown)
32 | 1900 | 1760 |  |  | Cn1c(=O)oc2ccc(-c3ccc(C[C@@H](C#N)NC(=O)C4CC=CCNC4)cc3)cc21 (stereo partly shown)
33 | > 5000 | > 5000 |  |  | C=C1Oc2ccc(-c3ccc(C[C@@H](C#N)NC(=O)C4CC5NCCCC5N4)cc3)cc2N1C (stereo partly shown)
34 | 4350 | > 5000 |  |  | N#Cc1ccc(-c2ccc(C[C@@H](C#N)NC(=O)C3CNC3)cc2)cc1
35 | 366 | 2270 |  |  | N#Cc1ccc(-c2ccc(C[C@@H](C#N)NC(=O)[C@@H]3C[C@@H]4COC[C@@H]4N3)s2)cc1
36 | 825 | 1270 |  |  | Cn1c(=O)oc2ccc(-c3ccc(C[C@@H](C#N)NC(=O)C4CNC4)cc3)cc21
